Where a name gives a salt, the structure may show the parent alone.
Assay: collision cross section in nitrogen (drift tube, single-field); higher = larger gas-phase ion size
[1] = ion type: [M+H], ion source: APCI, ion mode: Positive
[2] = ion type: [M-H], ion source: ESI, ion mode: Negative
[3] = ion type: [M+H], ion source: ESI, ion mode: Positive
[4] = ion type: [M+Na], ion source: ESI, ion mode: Positive
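Note: chemical standards at 10 µM analysed by drift tube IMS-QTOF MS in about 3.95 torr nitrogen, mean of duplicate injections differing ≤1%, mass error below 10 ppm.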

| Compound | collision cross section in nitrogen [1] | collision cross section in nitrogen [2] | collision cross section in nitrogen [3] | collision cross section in nitrogen [4] | collision cross section in nitrogen (ion type: [M+], ion source: APCI, ion mode: Positive) |
| --- | --- | --- | --- | --- | --- |
| Cc1ccc2[nH]c3cc4c(=O)c5cc(C)ccc5[nH]c4cc3c(=O)c2c1 [C.I. Pigment Red 122] | 183.4 Å² | 185.7 Å² |  |  |  |
| CCOC(=O)C1=NOC(c2ccccc2)(c2ccccc2)C1 [Ethyl 5,5-diphenyl-2-isoxazoline-3-carboxylate] |  |  | 169.5 Å² | 187.8 Å² |  |
| CCCCC(CC)C(=O)O (configuration not stated) [2-Ethylhexanoic acid] |  | 138.1 Å² |  |  |  |
| Nc1ccc(C(=O)OCCCOC(=O)c2ccc(N)cc2)cc1 [1,3-Propanediyl bis(p-aminobenzoate)] |  | 166.6 Å² |  | 188.2 Å² |  |
| Nc1ccc(Oc2ccc(N)c(N)c2)cc1 [3,4,4'-Triaminodiphenyl ether] | 159.9 Å² |  |  |  |  |
| CCCCc1oc2ccccc2c1C(=O)c1cc(I)c(OCCN(CC)CC)c(I)c1 [Amiodarone hydrochloride] | 223.8 Å² |  | 224.2 Å² | 231.6 Å² | 224 Å² |
| CC1(C)CCC[C@]2(C)[C@H]3CC(=O)O[C@]3(C)CC[C@@H]12 [(3aR)-(+)-Sclareolide] |  |  |  | 181.5 Å² |  |
| C[C@H]1O[C@H](O[C@H]2[C@H](O)[C@@H](O)[C@@H](O)[C@H](O)[C@@H]2O)[C@@H](N)C[C@@H]1NC(=N)C(=O)O [Kasugamycin hydrochloride] |  | 178 Å² | 165.9 Å² |  |  |
| O=c1oc2ccccc2c(O)c1C(CC(O)c1ccc(-c2ccc(Br)cc2)cc1)c1ccccc1 (configuration not stated) [Bromadiolone] |  | 215.1 Å² |  | 239.5 Å² |  |
| CCOP(=S)(OCC)Oc1cc(C)nc(C(C)C)n1 [Diazinon] | 173.5 Å² |  | 173.7 Å² |  |  |
| COc1cc(O)c(C(=O)c2ccccc2)cc1S(=O)(=O)O [Sulisobenzone hydrate] |  | 167.7 Å² |  |  |  |
| O=Nc1ccc(Nc2ccccc2)cc1 [4-Nitrosodiphenylamine] | 144.3 Å² | 144.7 Å² | 144.2 Å² |  |  |
| CC(C)CCCCCCOC(=O)C1CCCCC1C(=O)OCCCCCCC(C)C (configuration not stated) [Diisononyl cyclohexane-1,2-dicarboxylate] |  |  |  | 220.8 Å² |  |
| Cc1cc(N=Nc2ccccc2C)ccc1N [o-Aminoazotoluene] | 155.9 Å² | 157.3 Å² | 156 Å² |  |  |
| O=C1Nc2ccc(Cl)cc2C(c2ccccc2)=NC1O (configuration not stated) [Oxazepam] | 163.5 Å² | 162.7 Å² | 163.7 Å² | 180 Å² |  |
| N[C@@H](Cc1c[nH]c2ccccc12)C(=O)O [l-Tryptophan] |  | 151.6 Å² |  |  |  |
| COC(=O)c1sccc1S(N)(=O)=O [Methyl 3-sulfamoylthiophene-2-carboxylate] |  | 141.1 Å² |  | 148.5 Å² |  |
| Cn1c(=O)[nH]c2ncn(C)c2c1=O [1,7-Dimethylxanthine] | 134.2 Å² | 136.8 Å² |  |  |  |
| COc1cccc2c1cc([N+](=O)[O-])c1c(C(=O)O)cc3c(c12)OCO3 [Sodium aristolochate-I] |  |  |  | 185.6 Å² |  |

| Compound | collision cross section in nitrogen [1] | collision cross section in nitrogen [2] | collision cross section in nitrogen [3] | collision cross section in nitrogen [4] | collision cross section in nitrogen (ion type: [M+], ion source: APCI, ion mode: Positive) |
| --- | --- | --- | --- | --- | --- |
| Nc1nc2nc[nH]c2c(=S)[nH]1 [6-Thioguanine] | 132.4 Å² | 128.9 Å² | 133.4 Å² | 142.3 Å² |  |
| CCCCOC(=O)C(C)Oc1ccc(Oc2ccc(C(F)(F)F)cn2)cc1 (configuration not stated) [Fluazifop-butyl] | 195.5 Å² | 188.7 Å² | 195.1 Å² | 194.4 Å² |  |
| C=C(C)C(=O)OCC(O)COc1ccc(C(C)(C)c2ccc(OCC(O)COC(=O)C(=C)C)cc2)cc1 (configuration not stated) [Bisphenol A glycidyl methacrylate] |  |  |  | 215.5 Å² |  |
| CCON=C(CC)C1=C(O)CC(c2c(C)cc(C)cc2C)CC1=O (configuration not stated) [Tralkoxydim] | 187.3 Å² | 188.9 Å² | 187 Å² | 196.2 Å² |  |
| OCCc1ccncc1 [2-(Pyridin-4-yl)ethanol] | 124.6 Å² |  | 124.3 Å² |  |  |
| O=C(O)c1cc2ccccc2cc1O [3-Hydroxy-2-naphthoic acid] |  | 135.6 Å² |  |  |  |
| COP(=S)(OC)Oc1ccc(S(=O)(=O)N(C)C)cc1 [Famphur] | 174 Å² |  |  | 173.8 Å² |  |
| OCCN1CCNCC1 [1-Piperazineethanol] | 124.7 Å² |  | 125.6 Å² |  |  |
| CNC(=O)Oc1ccc(N(C)C)c(C)c1 [Aminocarb] | 151.6 Å² |  | 152.2 Å² | 155.8 Å² |  |
| CC(=O)Nc1ccccc1O [2-Hydroxyacetanilide] |  | 130.2 Å² |  |  |  |
| CC(C)(Oc1ccc(C2CC2(Cl)Cl)cc1)C(=O)O (configuration not stated) [Ciprofibrate] |  | 171.9 Å² |  |  |  |
| O=C(O)C1C(C(=O)O)C2(Cl)C(Cl)=C(Cl)C1(Cl)C2(Cl)Cl (configuration not stated) [Chlorendic acid] |  | 159 Å² |  |  |  |
| CCOP(=S)(S)OCC [O,O′-Diethyl hydrogen dithiophosphate] |  | 135 Å² |  |  |  |
| Cc1cc(C)c(C(=O)O)c(C)c1 [2,4,6-Trimethylbenzoic acid] |  | 140.5 Å² |  |  |  |
| O=C(NO)C1(NS(=O)(=O)c2ccc(Oc3ccc(F)cc3)cc2)CCOCC1 |  | 184.6 Å² |  | 206.8 Å² |  |
| CO/C=C(/C(=O)OC)c1ccccc1Oc1cc(Oc2ccccc2C#N)ncn1 [Azoxystrobin] | 196.5 Å² |  | 195 Å² | 199 Å² |  |
| CS(=O)(=O)c1cc(C(F)(F)F)ccc1C(=O)c1cnoc1C1CC1 [Isoxaflutole] |  | 175.5 Å² |  | 185.2 Å² |  |
| Cc1ccc(S(=O)(=O)C(I)I)cc1 [Diiodomethyl 4-methylphenyl sulfone] |  | 151.9 Å² |  |  |  |
| NC(=O)c1nc(-c2cccc(-c3cc(F)ccc3OCC(F)(F)C(F)(F)F)c2)n[nH]1 | 189.4 Å² | 195.5 Å² | 189.1 Å² | 190.9 Å² |  |

| Compound | collision cross section in nitrogen [1] | collision cross section in nitrogen [2] | collision cross section in nitrogen [3] | collision cross section in nitrogen [4] | collision cross section in nitrogen (ion type: [M+], ion source: APCI, ion mode: Positive) |
| --- | --- | --- | --- | --- | --- |
| CCC1(C)NC(=O)NC1=O (configuration not stated) [5-Ethyl-5-methylhydantoin] |  | 129.7 Å² |  |  |  |
| CC(C)NCC(O)COc1cccc2ccccc12 (configuration not stated) [Propranolol hydrochloride] | 162.5 Å² |  | 162.8 Å² | 167.7 Å² |  |
| C=CCOC(Cn1ccnc1)c1ccc(Cl)cc1Cl (configuration not stated) [Imazalil] | 167.9 Å² |  | 167.9 Å² |  |  |
| CCNC(=O)[C@@H](C)OC(=O)Nc1ccccc1 [Carbetamide] |  |  |  | 167.4 Å² |  |
| c1ccc(N=NNc2ccccc2)cc1 [Diazoaminobenzene] |  |  | 147 Å² |  |  |
| CCC(CC)Nc1ccc(C)c(C)c1 [N-(1-Ethylpropyl)-3,4-xylidine] |  |  |  | 151.1 Å² |  |
| N#C[C@@H]1CC(F)(F)CN1C(=O)CNC1CC2CCC(C1)N2c1ncccn1 (some centres not stated) | 176.9 Å² |  | 176.9 Å² | 182.7 Å² |  |
| CCCCNS(=O)(=O)c1ccccc1 [N-Butylbenzenesulfonamide] |  | 148.3 Å² |  |  |  |
| CCC(C(=O)NC(N)=O)c1ccccc1 (configuration not stated) [Ethylphenylacetylurea] |  | 151 Å² |  |  |  |
| O=C(Nc1ccccc1-c1ccc(Cl)cc1)c1cccnc1Cl [Boscalid] |  | 177.1 Å² | 175.5 Å² |  |  |
| CC(=NNC(=O)Nc1cc(F)cc(F)c1)c1ncccc1C(=O)O [Diflufenzopyr-sodium] |  |  |  | 182.3 Å² |  |
| CCC(C)(CCCC(C)C)OC(C)=O (configuration not stated) [3,7-Dimethyloctan-3-yl acetate] |  | 154.8 Å² |  |  |  |
| CCOP(=S)(OCC)Oc1ccc(S(C)=O)cc1 (configuration not stated) [Fensulfothion] |  |  | 174.5 Å² | 169.7 Å² |  |
| CNC(=O)N(C)c1nc2ccccc2s1 [Methabenzthiazuron] | 144.2 Å² |  | 144.7 Å² |  |  |
| CC(C)(COCC1CO1)COCC1CO1 (configuration not stated) [Neopentyl glycol diglycidyl ether] |  |  |  | 148.2 Å² |  |
| CCc1cccc(C)c1N(C(=O)C(=O)O)C(C)COC (configuration not stated) [Metolachlor OA] |  | 165.9 Å² |  |  |  |
| COc1ccc(C(=O)Nc2nc3ccccc3c(NCc3ccccc3)c2C#N)cc1 | 207 Å² | 210.8 Å² | 206.7 Å² | 206.2 Å² |  |
| Clc1ccc2c(c1)C(N1CCNCC1)=Nc1ccccc1O2 [Amoxapine] | 172.4 Å² |  | 172.6 Å² |  |  |
